One series concerns delayed hypersensitivity. As to the kind of experiment: Augmentation test of delayed hypersensitivity (picryl chloride, mouse ear thickness). Type of series: in vivo, mice (ICR strain, male). To be noted: 50 mg/kg oral, simultaneously with sensitization; 24 hours after challenge; average of 16 measurements of 8 animals; * P<0.05 vs control. An excerpt:
These facts are more fully explained with reference to the following evaluation tests. A variety of experimental systems are being commonly used to test immunomodulatory activity in animals. Of such tests, the most typical one is an augmentation test of delayed hypersensitivity as shown below. […] L., and Ptak, W. "Contact and delayed hypersensitivity in the mouse I. Active sensitization and passive transfer," Immunology, 15, 405-416(1968)). In the following Evaluation Test 1, this experimental system was used to carry out an augmentation test of delayed hypersensitivity. [Augmentation test of delayed hypersensitivity] Male mice of the ICR strain, weighing approximately 30 g, were used in groups of eight. These animals were sensitized by shaving the hair on the abdomen and applying thereto a 3% solution of picryl chloride in a 4:1 mixture of olive oil and acetone. Simultaneously with this sensitization, each of two compounds of the present invention was dissolved or suspended in physiological saline containing 0.2% carboxymethyl cellulose and administered orally to the animals in a dose of 50 mg per kg of body weight. A control group was treated solely with physiological saline containing 0.2% carboxymethyl cellulose. Seven days after sensitization, delayed hypersensitivity was challenged by wrapping the tips of a forceps with pieces of felt, impregnating the felt with olive oil containing 1% picryl chloride, and pinching both ears of each animal. The thicknesses of the ears were measured before and 24 hours after the challenge, and the calculated percent increase of ear thickness (the average of 16 measurements made of the ears of 8 animals) is shown in Table 1. For purposes of comparison, the results of an experiment with Lavamisole hydrochloride are also given. The test results thus obtained were subjected to statistical analysis using the F.t test. The values marked with an asterisk (*) indicate that, when they were compared with the value of the control group, the differences were significant at P<0.05.

For the next series, the system named is adjuvant arthritis. As to the kind of experiment: Adjuvant arthritis test (hind paw swelling). Type of series: in vivo, rats (SD strain, male). To be noted: 5 mg/kg subcutaneous, nine times before and after injection of adjuvant; left hind paw volume; * P<0.05 vs control. The method, then: The adjuvant arthritis induced in rats by injection of a tubercle bacillus adjuvant is frequently used as an experimental model for rheumatoid arthritis in man.
Although the mechanism by which this phenomenon occurs is not completely elucidated, cellular immunity is known to play an important role. Employing this well-known adjuvant arthritis test, the same compounds of the present invention were further examined for immunomodulatory activity.
[Adjuvant arthritis test]
An adjuvant was prepared by suspending 0.4 mg of killed and dried cells of the human type tubercle bacillus (Mycobacterium tuberclosis) in 0.1 ml of liquid paraffin, and inoculated intradermally into the right hind paw of 8-weeks-old male rats of the SD strain. Each of the two compounds of the present invention was subcutaneously administered nine times before and after injection of the adjuvant. These compounds were dissolved or suspended in physiological saline containing 0.2% carboxymethyl cellulose and administered in an amount of 5 mg per kg of body weight. The volume of the left hind paw of each animal was daily measured from the day of inoculation of the adjuvant to the end of the test, and the calculated percent inhibition of swelling is shown in Table 2. For purposes of comparison, the results of an experiment with Levamisole hydrochloride are also given. The test results thus obtained were subjected to statistical analysis using the F.t test. The values marked with an asterisk (*) indicate that, when they were compared with the value of a control group treated solely with physiological saline containing 0.2% carboxymethyl cellulose, the differences were significant at P<0.05.

The nature of series [1]: Test for acute oral toxicity. On the set-up: species or system mice (ddY strain. To be noted: mouse, in vivo, 5 male ddY mice per group, observed for 7 days, estimated. Here is the method: The toxicity of the active ingredients of some typical pharmaceutical composition of the present invention was examined in the following Evaluation Test 3.
[Test for acute oral toxicity]
Each of the compounds used in Evaluation Tests 1 and 2 was dissolved or suspended in physiological saline and administered orally to a group of 5 male mice of the ddY strain. The LD50 value of the compound was estimated by observing these animals for 7 days after administration.

Where a name gives a salt, the structure may show the parent alone.

In the case of `O=C(C(=O)n1ccc(=O)[nH]c1=O)n1ccc(=O)[nH]c1=O` [drawing 4], the “Percent increase of ear thickness” value with delayed hypersensitivity came out at 33.9%.

For the compound `O=C(C(=O)n1ccc(=O)[nH]c1=O)n1ccc(=O)[nH]c1=O` [drawing 6], in the series with adjuvant arthritis, the “Percent inhibition of swelling as compared with control group (average of 16-20 days)” value (shortened to “Percent inhibition of swelling”) turned out to be 41.4%.

Broadly, the LD50 is the dose at which mortality reaches 50%. For `c1ccc([C@H]2CN3CCSC3=N2)cc1` [Levamisole hydrochloride, reference compound], the LD50 at 168 h in series [1] is 200 to 300 mg/kg. The “Percent inhibition of swelling” value in the series with adjuvant arthritis was 19.8%. For the same compound, the “Percent increase of ear thickness” value in the series on delayed hypersensitivity turned out to be 31.2%.

`Cc1cn(C(=O)C(=O)n2cc(C)c(=O)[nH]c2=O)c(=O)[nH]c1=O` [drawing 7]: the “Percent inhibition of swelling” value in the series on adjuvant arthritis is 29.9%.

With `Cc1cn(C(=O)C(=O)n2cc(C)c(=O)[nH]c2=O)c(=O)[nH]c1=O` [drawing 5], in the series with delayed hypersensitivity, the “Percent increase of ear thickness” value was 28.6%.

Source of the values: patent US4524147A, “Uracil derivatives, process for preparing same, and pharmaceutical compositions comprising same” (Mitsui Toatsu Chemicals, Incorporated, priority 1981, dated 1985).
